Values of other authors in US6458376B1, “Nonaqueous fluorinated drug delivery suspensions” (Allergan, Inc., priority 1990, dated 2002).

Experiments:
[1] = systemically administered
[2] = for Boiling point: ambient pressure

In the case of FC1(F)C(F)(F)C(F)(F)C2(F)C(F)(F)C(F)(F)C(F)(F)C(F)(F)C2(F)C1(F)F (centres unmarked) [PFD, Perfluoro(decahydronaphthalene)], the elimination half life [1] is listed as “about 7 days”, the “elimination half-life (in words)” value [1] is listed as “quite rapid” and the “Density @ 25° C.” value [2] is listed as 1.929 gms/mL. For the same molecule, the “Kin. viscosity @ 25° C.” value [2] was 2.9 cst, the “Specific heat @ 25° C.” value [2] was 0.22 g-cal/gm and the “Surface tension @ 25° C.” value [2] was 19.3 dynes/cm. For the same molecule, the Boiling point [2] was 142 °C.

For FC1(F)C(F)(F)C(F)(F)C2(F)C(F)(C1(F)F)C(F)(F)C(F)(F)C1(F)C(F)(F)C(F)(F)C(F)(F)C(F)(F)C12F (centres unmarked) [PPP, perfluoroperhydrophenanthrene], the “elimination half-life (in words)” value [1] is given as “quite rapid”, the “Density @ 25° C.” value [2] is given as 2.016 gms/mL and the “Kin. viscosity @ 25° C.” value [2] is given as 8.0 cst. For the same molecule, the “Specific heat @ 25° C.” value [2] was 0.27 g-cal/gm, the “Surface tension @ 25° C.” value [2] was 21.6 dynes/cm and the Boiling point [2] was 215 °C.

For O [Water, reference compound], the “Density @ 25° C.” value [2] is listed as 1.000 gms/mL, the “Kin. viscosity @ 25° C.” value [2] is listed as 1.00 cst and the “Specific heat @ 25° C.” value [2] is listed as 1.00 g-cal/gm. For the same molecule, the “Surface tension @ 25° C.” value [2] was 72.0 dynes/cm.
